# Assay results published in patent US11242334B2, “Heterocyclic compounds as kinase inhibitors, compositions comprising the heterocyclic compound, and methods of use thereof” (JS INNOPHARM (SHANGHAI) LTD, priority 2017, dated 2022).
# What was measured:
# human ERK2 = biological target: T1, human ERK2 (Homo sapiens, UniProt P28482); experiment: LanthaScreen TR-FRET enzymatic assay, ERK2; details: IC50 values of ERK2 biochemical activity; 5 μM ATP, 400 nM ATF2-GFP substrate
# T1 construct: recombinantly expressed as GST-tagged full-length protein purified from E. coli; GST; purchased Invitrogen PV3311; host or cells: E. coli
# T1 sequence (P28482 whole entry): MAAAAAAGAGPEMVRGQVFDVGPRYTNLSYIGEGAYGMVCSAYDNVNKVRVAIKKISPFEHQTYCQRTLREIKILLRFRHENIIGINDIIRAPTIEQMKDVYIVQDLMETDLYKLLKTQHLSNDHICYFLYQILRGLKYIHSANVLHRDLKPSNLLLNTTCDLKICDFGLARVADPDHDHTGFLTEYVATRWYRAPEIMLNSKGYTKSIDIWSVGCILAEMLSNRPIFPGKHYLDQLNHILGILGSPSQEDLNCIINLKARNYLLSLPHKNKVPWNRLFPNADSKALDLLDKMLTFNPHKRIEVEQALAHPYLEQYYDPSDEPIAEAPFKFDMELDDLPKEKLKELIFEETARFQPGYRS
# Outline: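 GST-tagged full-length ERK2 from E. coli, activated with MAP2K1, was used at 20 ng/ml with 400 nM GFP-ATF2(19-96) and 5 μM ATP (near Km). Compound was pre-incubated 15 min, and the reaction ran 1 h at room temperature. pThr71 was detected by Tb-antibody TR-FRET ratio, with IC50 from sigmoid fitting against 1% DMSO.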
# Colo205 cell line = experiment: Colo205 cell proliferation assay (MTT assay, WST-8 readout); assay type: cell-based; details: Homo sapiens; IC50 values of growth inhibition in Colo 205 cells; 72 hours
# Outline: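 Colo205 cells were seeded at 5,000 cells/well in RPMI-1640 with 10% FBS and attached for 24 h at 37° C. They were then exposed for 72 h to compound at final 50 μM to 0.005 μM (0.5% DMSO). Viability was read as WST-8 absorbance at 450 nm after 2 h, and IC50 of growth inhibition was determined.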
IC50 (human ERK2) [nM],IC50 (Colo205 cell line) [nM],SMILES
< 10,1000 to 5000,"Cc1cc(-c2n[nH]c3cnc(-c4ccn(Cc5ccnc(C(F)(F)F)c5)c(=O)c4)cc23)ccn1 [Example 144, 4-(3-(2-methylpyridin-4-yl)-1H-pyrazolo[3,4-c]pyridin-5-yl)-1-((2-(trifluoromethyl)pyridin-4-yl)methyl)pyridin-2(1H)-one]"
< 10,500 to 1000,"O=c1cc(-c2ccc3[nH]nc(C4CCOCC4)c3c2)ccn1[C@H](CO)c1cc(F)cc(Br)c1 [Example 145, (S)-1-(1-(3-bromo-5-fluorophenyl)-2-hydroxyethyl)-4-(3-(tetrahydro-2H-pyran-4-yl)-1H-indazol-5-yl)pyridin-2(1H)-one]"
< 10,1000 to 5000,"CC(c1cc(F)cc(Br)c1)n1ccc(-c2ccc3[nH]nc(C4CCOCC4)c3c2)cc1=O (stereo not drawn) [Example 146, 1-(1-(3-bromo-5-fluorophenyl)ethyl)-4-(3-(tetrahydro-2H-pyran-4-yl)-1H-indazol-5-yl)pyridin-2(1H)-one]"
< 10,≤ 500,"O=c1cc(-c2ccc3[nH]nc(C4CCOCC4)c3c2)ccn1Cc1ccnc(C(F)(F)F)c1 [Example 147, 4-(3-(tetrahydro-2H-pyran-4-yl)-1H-indazol-5-yl)-1-((2-(trifluoromethyl)pyridin-4-yl)methyl)pyriidn-2(1H)-one]"
< 10,1000 to 5000,"O=c1cc(-c2ccc3[nH]nc([C@H]4CC[C@H](O)CC4)c3c2)ccn1Cc1ccnc(C(F)(F)F)c1 [Example 148, 4-(3-((1r,4r)-4-hydroxycyclohexyl)-1H-indazol-5-yl)-1-((2-(trifluoromethyl)pyridin-4-yl)methyl)pyridin-2(1H)-one]"
10 to 50,> 5000,"O=c1cc(-c2ccc3[nH]nc([C@H]4CC[C@@H](O)CC4)c3c2)ccn1Cc1ccnc(C(F)(F)F)c1 [Example 149, 4-(3-((1s,4s)-4-hydroxycyclohexyl)-1H-indazol-5-yl)-1-((2-(trifluoromethyl)pyridin-4-yl)methyl)pyridin-2(1H)-one]"
